We go through 25 compounds from PMC12257544, “Fluorescent Isostere (Fluostere) of the Carboxylate: Design of hDHODH Fluorescent Inhibitors as Proof of Concept” (Journal of Medicinal Chemistry, 2025).

Data set [1] in a line: Photophysical characterization (absorption, emission, QY, lifetime). The data set is classed as physicochemical. As to conditions: for λabs / λem / Lifetime / QY (luminescence quantum yield) / Stokes shift: in ACN. How it is done: UV–Vis absorption spectra were recorded on a Cary60 spectrometer. Photoemission spectra, luminescence lifetimes, and quantum yields were acquired with a HORIBA Jobin Yvon IBH Fluorolog-TCSPC spectrofluorometer equipped with a Quanta-φ integrating sphere. […] Emission-decay data were collected in 2048 channels to 10000 counts in the peak channel. IRF was measures using colloidal silica suspension in H2O to scatter light. Data were analyzed with the software DAS6 (TCSPC decay-analysis software) using a nonlinear least-squares method to fit of the decay to a sum of exponentials. The value of χ^2, residuals and the autocorrelation function (Durbin-Watson parameter) were used to determine the quality of the fit. For measurements in the presence of hDHODH, 11a was incubated, at 1 μM concentration in TRIS Buffer 0.1 mM (pH 8) with 0.1% DMSO, alone or with different concentrations of recombinant protein ranging from 31.5 to 504 nM concentration. After 5 min incubation UV–Vis absorption spectra were recorded on a Cary60 spectrophotometer and photoemission spectra were acquired with a HORIBA Jobin Yvon IBH Fluorolog-TCSPC spectrofluorometer with excitation λ of 366 nm and maximum of emission at 500 nm; a.u. data were analyzed with GraphPad Prism using One Site – Specific Binding equation.

Details of data set [2]: method as in doi:10.1021/cr00002a004. The conditions noted are these: substituent in position 3; cited from earlier work.
The next data set deals with hDHODH enzyme GST-tagged (Homo sapiens, UniProt Q02127). Kind of data set: hDHODH inhibition assay (DCIP reduction).
Chain of hDHODH enzyme GST-tagged (Q02127 whole entry): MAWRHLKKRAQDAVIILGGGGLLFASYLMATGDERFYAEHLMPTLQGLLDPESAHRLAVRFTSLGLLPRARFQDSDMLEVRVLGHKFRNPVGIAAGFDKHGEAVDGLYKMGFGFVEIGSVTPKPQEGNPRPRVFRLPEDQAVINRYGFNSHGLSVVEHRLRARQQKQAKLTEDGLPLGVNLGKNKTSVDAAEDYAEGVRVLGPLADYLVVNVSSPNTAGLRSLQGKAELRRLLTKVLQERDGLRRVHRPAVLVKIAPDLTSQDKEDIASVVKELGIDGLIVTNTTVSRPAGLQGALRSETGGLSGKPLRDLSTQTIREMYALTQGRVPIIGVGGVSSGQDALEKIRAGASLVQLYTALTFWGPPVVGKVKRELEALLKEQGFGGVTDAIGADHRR

Several values for one entry are separate records, joined by “and”; a condition that tells them apart may be missing. Equal entries are not always repeated. Some results are limits rather than exact numbers.

As usually defined, the IC50 is the concentration at which inhibition is half-maximal.

Method for hDHODH enzyme GST-tagged: The enzyme (around 60 nM) was preincubated for 5 min at 37 °C in Tris-buffer solution (pH 8.0) with coenzyme Q10 (100 μM), tested compounds at different concentrations (final DMSO concentration 0.1% v/v), and DCIP (50 μM). The reaction was initiated by addition of DHO (500 μM) and the reduction was monitored at λ = 650 nm. […] Values are means ± SE of three independent experiments.

In data set [1], `COc1cc2ccccn2n1` [Compound 1a, 2-Methoxypyrazolo[1,5-a]pyridine] gave a λabs of 305 nm and a λem of 400 nm.

In the case of `Cn1c(=O)cc2ccccn21` [Compound 1b, 1-Methylpyrazolo[1,5-a]pyridin-2(1H)-one], in data set [1], the λabs is listed as 335 nm and the λem is 465 nm.

Turning to `CCOC(=O)c1c(OC)nn2ccccc12` [Compound 2a, Ethyl 2-methoxypyrazolo[1,5-a]pyridine-3-carboxylate], in data set [1], the Lifetime was determined as 9 ns, the “QY (luminescence quantum yield)” value worked out at 0.45, the Stokes shift is reported as 5942 cm^–1 and the λabs came to 310 nm. In addition, the λem in data set [1] was 380 nm.

With `CCOC(=O)c1c(=O)n(C)n2ccccc12` [Compound 2b, Ethyl 1-methyl-2-oxo-1,2-dihydropyrazolo[1,5-a]pyridine-3-carboxylate], in data set [1], the Lifetime was 11 ns, the “QY (luminescence quantum yield)” value is listed as 0.26, the Stokes shift is on record as 6514 cm^–1 and the λabs was 345 nm. The λem in data set [1] is 445 nm.

Take `CCOC(=O)c1c(OCc2ccccc2)nn2ccccc12` [Compound 2c, Ethyl 2-(Benzyloxy) Pyrazolo[1,5-a]pyridine-3-carboxylate]: in data set [1], the Lifetime worked out at 9 ns, the “QY (luminescence quantum yield)” value was 0.43, the Stokes shift is recorded as 5942 cm^–1 and the λabs amounted to 310 nm. Moreover, the λem in data set [1] is listed as 380 nm.

With `CCOC(=O)c1c(=O)n(Cc2ccccc2)n2ccccc12` [Compound 2d, Ethyl 1-benzyl-2-oxo-1,2-dihydropyrazolo[1,5-a]pyridine-3-carboxylate], in data set [1], the Lifetime amounted to 12 ns, the “QY (luminescence quantum yield)” value is 0.30, the Stokes shift amounted to 6414 cm^–1 and the λabs worked out at 348 nm. In data set [1], the λem is listed as 448 nm.

`O=[N+]([O-])c1c(O)nn2ccccc12` [Compound 3, 3-Nitropyrazolo[1,5-a]pyridin-2-ol]: in data set [1], the λabs was determined as 361 nm and the λem result is “n.e. ^a”. In addition, in data set [2], the “σ p (Hammett substituent constant)” value is reported as 0.78.

`COc1nn2ccccc2c1NC(C)=O` [Compound 3a, N-(2-methoxypyrazolo[1,5-a]pyridine-3-yl)acetamide]: in data set [1], the “QY (luminescence quantum yield)” value is given as less than 0.01, the Stokes shift is 10169 cm^–1, the λabs turned out to be 312 nm and the λem is 457 nm. In data set [2], the “σ p (Hammett substituent constant)” value is reported as 0.00.

For the compound `COc1nn2ccccc2c1NS(C)(=O)=O` [Compound 3b, N-(2-methoxypyrazolo[1,5-a]pyridin-3-yl)methanesulfonamide], in data set [1], the Lifetime is 2 ns, the “QY (luminescence quantum yield)” value is recorded as less than 0.01, the Stokes shift was found to be 10379 cm^–1 and the λabs was 315 nm. Also, the λem in data set [1] stood at 468 nm. Also, the “σ p (Hammett substituent constant)” value in data set [2] is on record as 0.03.

For the compound `COc1nn2ccccc2c1C=C(C#N)C#N` [Compound 4a, 2-((2-Methoxypyrazolo[1,5-a]pyridin-3-yl)methylene)], in data set [1], the λabs stood at 393 nm, the λem result is “n.e” and the “emission in the solid state” value is listed as “yellow light”.

As for `COC(=O)/C(C#N)=C/c1c(OC)nn2ccccc12` [Compound 4b, Methyl (e)-2-cyano-3-(2-methoxypyrazolo[1,5-a]pyridin-3-yl)acrylate], in data set [1], the λabs is on record as 395 nm, the λem entry is “n.e” and the “emission in the solid state” value is reported as “yellow light”.

Consider `COc1nn2ccccc2c1/C=C/c1ccccc1` [Compound 5a, (E)-2-methoxy-3-styrylpyrazolo[1,5-a]pyridine], for which, in data set [1], the Lifetime is 3.5 ns, the “QY (luminescence quantum yield)” value is reported as less than 0.01, the Stokes shift worked out at 9851 cm^–1 and the λabs worked out at 335 nm. This compound also displayed a λem in data set [1] of 500 nm.

On to `COc1nn2ccccc2c1/C=C/c1ccc(SC)cc1` [Compound 5b, (E)-2-methoxy-3-(4-(methylthio)styryl)pyrazolo[1,5-a]pyridine], for which, in data set [1], the Lifetime was 3.5 ns, the “QY (luminescence quantum yield)” value is recorded as less than 0.01, the Stokes shift is 8964 cm^–1 and the λabs came out at 350 nm. In addition, the λem in data set [1] is 510 nm.

Turning to `COc1nn2ccccc2c1/C=C/c1ccc(S(C)(=O)=O)cc1` [Compound 5c, (E)-2-methoxy-3-(4-(methylsulfonyl)styryl)pyrazolo[1,5-a]pyridine], in data set [1], the Lifetime stood at 3.5 ns, the “QY (luminescence quantum yield)” value is less than 0.01, the Stokes shift is listed as 5750 cm^–1 and the λabs is 370 nm. In data set [1], this compound displayed a λem of 470 nm.

Regarding `COc1nn2ccccc2c1/C=C/c1ccc(C#N)cc1` [Compound 5d, (E)-4-(2-(2-methoxypyrazolo[1,5-a]pyridin-3-yl)vinyl)benzonitrile], in data set [1], the Lifetime is given as 3.5 ns, the “QY (luminescence quantum yield)” value is less than 0.01, the Stokes shift is 5178 cm^–1 and the λabs is 378 nm. In data set [1], the λem stood at 470 nm.

As for `COc1nn2ccccc2c1/C=C/c1ccc([N+](=O)[O-])cc1` [Compound 5e, (E)-2-methoxy-3-(4-nitrostyryl) Pyrazolo[1,5-a]pyridine], in data set [1], the Lifetime was less than 0.1 ns, the “QY (luminescence quantum yield)” value was less than 0.01, the Stokes shift turned out to be 8368 cm^–1 and the λabs came to 426 nm. Besides, the λem in data set [1] was determined as 662 nm.

Take `COc1nn2ccccc2c1-c1ccc2ccccc2c1` [Compound 6, 2-Methoxy-3-(naphthalen-2-yl)pyrazolo[1,5-a]pyridine]: in data set [1], the Lifetime was found to be 4.3 ns, the “QY (luminescence quantum yield)” value is 0.13, the Stokes shift is listed as 7480 cm^–1 and the λabs was 345 nm. Further, in data set [1], the λem came out at 465 nm.

On to `COc1nn2ccccc2c1-c1ccc2ccccc2n1` [Compound 7a, 2-(2-Methoxypyrazolo[1,5-a]pyridin-3-yl)quinoline], for which, in data set [1], the Lifetime was found to be 2.8 ns, the “QY (luminescence quantum yield)” value is on record as 0.52, the Stokes shift is listed as 3330 cm^–1 and the λabs is on record as 370 nm. This compound also registered a λem in data set [1] of 422 nm.

On to `COc1nn2ccccc2c1-c1ccc2cccnc2c1` [Compound 7b, 7-(2-Methoxypyrazolo[1,5-a]pyridin-3-yl)quinoline], for which, in data set [1], the Lifetime was 5.5 ns, the “QY (luminescence quantum yield)” value was 0.42, the Stokes shift was determined as 5868 cm^–1 and the λabs is given as 356 nm. Besides, the λem in data set [1] stood at 450 nm.

As to `COc1nn2ccccc2c1-c1ccc2ncccc2c1` [Compound 7c, 6-(2-Methoxypyrazolo[1,5-a]pyridin-3-yl)quinoline], in data set [1], the Lifetime is 5.3 ns, the “QY (luminescence quantum yield)” value stood at 0.24, the Stokes shift was 6832 cm^–1 and the λabs is recorded as 350 nm. Further, in data set [1], the λem is 460 nm.

As for `CCOC(=O)c1c(O)nn2c(N(C)C)cccc12` [Compound 8a, Ethyl 7-(Dimethylamino)-2-hydroxypyrazolo[1,5-a]pyridine-3-carboxylate], in data set [1], the Lifetime worked out at 3.7 ns, the “QY (luminescence quantum yield)” value is 0.06, the Stokes shift is 5255 cm^–1 and the λabs amounted to 338 nm. Besides, the λem in data set [1] was 411 nm.

For the compound `COc1nn2c(Cl)cccc2c1-c1ccc2ncccc2c1` [Compound 9a, 6-(7-Chloro-2-methoxypyrazolo[1,5-a]pyridin-3-yl)quinoline], in data set [1], the Lifetime is 5.1 ns, the “QY (luminescence quantum yield)” value was less than 0.01, the Stokes shift came out at 6832 cm^–1 and the λabs is on record as 350 nm.

As to `COc1nn2c(N(C)C)cccc2c1-c1ccc2ncccc2c1` [Compound 9b, 2-Methoxy-N,N-dimethyl-3-(quinolin-6-yl)pyrazolo[1,5-a]pyridin-7-amine], in data set [1], the Lifetime is recorded as 2.7 ns, the “QY (luminescence quantum yield)” value was 0.10, the Stokes shift was found to be 9508 cm^–1 and the λabs stood at 362 nm. Moreover, the λem in data set [1] is 552 nm.

On to `Oc1nn2ccccc2c1/C=C/c1cc(F)c(-c2ccccc2)c(F)c1F` [Compound 11b], for which, in data set [1], the Lifetime is recorded as less than 1 ns, the “QY (luminescence quantum yield)” value amounted to 0.08, the Stokes shift came out at 3531 cm^–1 and the λabs is reported as 450 nm. For the same compound, the λem in data set [1] was 542 nm and 535 nm.

As to `Oc1nn2ccccc2c1-c1ccc2cc(-c3ccccc3)ccc2n1` [Compound 12, 3-(6-Phenylquinolin-2-yl)pyrazolo[1,5-a]pyridin-2-ol], in data set [1], the Lifetime is 2.3 ns, the “QY (luminescence quantum yield)” value is listed as less than 0.01, the Stokes shift is 2385 cm^–1 and the λabs is 390 nm. In addition, the λem in data set [1] amounted to 430 nm. Also, the IC50 against hDHODH enzyme GST-tagged worked out at 16 µM.
